# Laboratory results: ChEMBL document CHEMBL5143508, “Design, synthesis and biological evaluation of novel o-aminobenzamide derivatives as potential anti-gastric cancer agents in vitro and in vivo” (Eur J Med Chem, 2022)
# Where “and” joins values, the source holds several entries; their conditions need not be identical. Equal values may be shown once. Calls of active or inactive are those of the source. The calls are words filed in the database; no cut-off is given here.
# How the values were obtained:
# [1] = test system: HGC-27; assay: Induction of apoptosis in human HGC-27 cells assessed as viable cells at 8 uM incubated for 48 hrs by annexin V FITC/propidium iodide staining based flow cytometry (reference value: 93.0 %); assay type: functional; details: read-out: Activity
# [2] = test system: MGC-803; assay: Induction of apoptosis in human MGC-803 cells assessed as necrotic cells at 2.5 uM incubated for 48 hrs by annexin V FITC/propidium iodide staining based flow cytometry (reference value: 1.06 %); assay type: functional
# [3] = test system: MGC-803; assay: Induction of cell cycle arrest in human MGC-803 cells assessed as reduction in accumulation of cells at G2/M phase at 2.5 to 10 uM incubated for 24 hrs by PI staining based flow cytometry analysis; assay type: functional; details: dose 2.5-10 µM
# [4] = test system: MGC-803; assay: Induction of cell cycle arrest in human MGC-803 cells assessed as reduction in accumulation of cells at S phase at 2.5 to 10 uM incubated for 24 hrs by PI staining based flow cytometry analysis; assay type: functional; details: dose 2.5-10 µM
# [5] = test system: HGC-27; assay: Induction of apoptosis in human HGC-27 cells assessed as necrotic cells at 2 uM incubated for 48 hrs by annexin V FITC/propidium iodide staining based flow cytometry (reference value: 1.24 %); assay type: functional
# [6] = test system: HGC-27; assay: Induction of cell cycle arrest in human HGC-27 cells assessed as reduction in accumulation of cells at G0/G1 phase at 0.5 to 8 uM incubated for 24 hrs by PI staining based flow cytometry analysis; assay type: functional; details: dose 0.5-8 µM
# [7] = test system: HGC-27; assay: Induction of apoptosis in human HGC-27 cells assessed as upregulation in cytochrome c expression at 0.5 to 8 uM incubated for 48 hrs by Western blot analysis; assay type: functional, cell-based; details: dose 0.5-8 µM
# [8] = test system: HGC-27; assay: Induction of apoptosis in human HGC-27 cells assessed as early apoptotic cells at 0.5 uM incubated for 48 hrs by annexin V FITC/propidium iodide staining based flow cytometry (reference value: 0.66 %); assay type: functional
# [9] = test system: MGC-803; assay: Induction of apoptosis in human MGC-803 cells assessed as early apoptotic cells at 2.5 uM incubated for 48 hrs by annexin V FITC/propidium iodide staining based flow cytometry (reference value: 0.42 %); assay type: functional
# [10] = test system: HGC-27; assay: Induction of apoptosis in human HGC-27 cells assessed as early apoptotic cells at 0.1 uM incubated for 48 hrs by annexin V FITC/propidium iodide staining based flow cytometry (reference value: 0.66 %); assay type: functional
# [11] = test system: HGC-27; assay: In vivo induction of apoptosis in human HGC-27 cells xenografted in BALB/c mouse assessed as increase in cleaved caspase-9 expression at 75 to 150 mg/kg , po bid administered for 19 days and measured by immunohistochemical analysis; assay type: functional, organism-based; details: dose 75-150 mg/kg, time 19.0 day
# [12] = Toxicity in BALB/c mouse xenografted with human HGC-27 cells assessed as mean platelet volume at 75 mg/kg, po bid for 19 days; assay type: organism-based; details: in vivo, 456 h, time 19 day
# [13] = test system: HGC-27; assay: Induction of apoptosis in human HGC-27 cells assessed as necrotic cells at 0.1 uM incubated for 48 hrs by annexin V FITC/propidium iodide staining based flow cytometry (reference value: 1.24 %); assay type: functional
# [14] = Toxicity in BALB/c mouse xenografted with human HGC-27 cells assessed as red blood cell distribution width at 75 mg/kg, po bid for 19 days; assay type: organism-based; details: in vivo, 456 h, time 19 day
# [15] = Toxicity in BALB/c mouse xenografted with human HGC-27 cells assessed as platelet distribution width at 150 mg/kg, po bid for 19 days; assay type: organism-based; details: in vivo, 456 h, time 19 day
# [16] = Toxicity in BALB/c mouse xenografted with human HGC-27 cells assessed as platelet level at 150 mg/kg, po bid for 19 days; assay type: organism-based; details: in vivo, 456 h, time 19 day
# [17] = Acute toxicity in Kunming mouse assessed as effect on heart pathology at 1000 mg/kg, po measured after 14 days; assay type: organism-based; details: in vivo, 336 h, time 14 day
# [18] = test system: HGC-27; assay: Induction of apoptosis in human HGC-27 cells assessed as upregulation in cleaved PARP expression at 0.1 to 1.6 uM incubated for 48 hrs by Western blot analysis; assay type: functional, cell-based; details: dose 0.1-1.6 µM
# [19] = Toxicity in BALB/c mouse xenografted with human HGC-27 cells assessed as lymphocyte level at 150 mg/kg, po bid for 19 days; assay type: organism-based; details: in vivo, 456 h, time 19 day
# [20] = test system: HGC-27; assay: Induction of apoptosis in human HGC-27 cells assessed as viable cells at 1.6 uM incubated for 48 hrs by annexin V FITC/propidium iodide staining based flow cytometry (reference value: 93.0 %); assay type: functional; details: read-out: Activity
# [21] = test system: HGC-27; assay: Induction of apoptosis in human HGC-27 cells assessed as necrotic cells at 1.6 uM incubated for 48 hrs by annexin V FITC/propidium iodide staining based flow cytometry (reference value: 1.24 %); assay type: functional
# [22] = Toxicity in BALB/c mouse xenografted with human HGC-27 cells assessed as mean platelet volume at 150 mg/kg, po bid for 19 days; assay type: organism-based; details: in vivo, 456 h, time 19 day
# [23] = test system: HGC-27; assay: Induction of apoptosis in human HGC-27 cells assessed as necrotic cells at 0.4 uM incubated for 48 hrs by annexin V FITC/propidium iodide staining based flow cytometry (reference value: 1.24 %); assay type: functional
# [24] = test system: HGC-27; assay: Antitumor activity against human HGC-27 cells xenografted in BALB/c mouse assessed as tumor growth inhibition at 150 mg/kg, po bid administered for 19 days; assay type: functional; details: HGC-27, 456 h, time 19 day, read-out: TGI
# [25] = test system: HGC-27; assay: Induction of apoptosis in human HGC-27 cells assessed as upregulation in Bax expression at 0.1 to 1.6 uM incubated for 48 hrs by Western blot analysis; assay type: functional, cell-based; details: dose 0.1-1.6 µM
# [26] = test system: HGC-27; assay: Induction of cell cycle arrest in human HGC-27 cells assessed as reduction in accumulation of cells at G2/M phase at 0.1 to 1.6 uM incubated for 24 hrs by PI staining based flow cytometry analysis; assay type: functional; details: dose 0.1-1.6 µM
# [27] = test system: MGC-803; assay: Induction of cell cycle arrest in human MGC-803 cells assessed as reduction in accumulation of cells at G0/G1 phase at 5 to 20 uM incubated for 24 hrs by PI staining based flow cytometry analysis; assay type: functional; details: dose 5-20 µM
# [28] = Acute toxicity in Kunming mouse assessed as effect on lung pathology at 1000 mg/kg, po measured after 14 days; assay type: organism-based; details: in vivo, 336 h, time 14 day
# [29] = Acute toxicity in Kunming mouse assessed as effect on liver pathology at 1000 mg/kg, po measured after 14 days; assay type: organism-based; details: in vivo, 336 h, time 14 day
# [30] = test system: HGC-27; assay: Antitumor activity against human HGC-27 cells xenografted in BALB/c mouse assessed as tumor growth inhibition at 75 mg/kg, po bid administered for 19 days; assay type: functional; details: HGC-27, 456 h, time 19 day, read-out: TGI
# [31] = test system: MGC-803; assay: cells; assay type: functional, cell-based; details: Homo sapiens, MGC-803, 72 h
# Description: Cytotoxicity against human MGC-803 cells assessed as inhibition of cell growth incubated for 72 hrs by MTT assay
# [32] = test system: HGC-27; assay: In vivo induction of cell cycle arrest in human HGC-27 cells xenografted in BALB/c mouse assessed as increase in p27 expression at 75 to 150 mg/kg, po bid administered for 19 days and measured by immunohistochemical analysis; assay type: functional, organism-based; details: dose 75-150 mg/kg, time 19.0 day
# [33] = test system: MGC-803; assay: Induction of cell cycle arrest in human MGC-803 cells assessed as reduction in accumulation of cells at S phase at 5 to 20 uM incubated for 24 hrs by PI staining based flow cytometry analysis; assay type: functional; details: dose 5-20 µM
# [34] = Toxicity in BALB/c mouse xenografted with human HGC-27 cells assessed as monocyte level at 75 mg/kg, po bid for 19 days; assay type: organism-based; details: in vivo, 456 h, time 19 day
# [35] = in vitro; details: human, WI-38 cells
# Description: Cytotoxicity against human WI-38 cells assessed as inhibition of cell growth incubated for 72 hrs by MTT assay
compound,measurement,setting,value
O=C(NCc1ccc(NC(=O)c2ccccc2N2CCCC2)cc1)OCc1cccnc1,viability at 8 µM,[1],36.2%
same,Activity,[2],4.32%
same,Activity,[3],Active
same,Activity,[4],Active
same,Activity,[5],12.1%
same,Activity,[6],Active
same,Activity,[7],Active
same,Activity,[8],0.92%
same,Activity,[9],0.85%
O=C(NCc1ccc(NC(=O)c2cc(F)ccc2N2CCCC2)cc1)OCc1cccnc1,Activity,[10],1.43%
same,Activity,[11],Active
same,Activity,[12],5.6 fL
same,Activity,[13],0.86%
same,Activity,[14],24.4%
same,Activity,[15],17.45
same,Activity,[16],1711 10^9/L
same,Activity,[17],Non-Toxic
same,Activity,[18],Active
same,Activity,[19],5.77 10^9/L and 7.2%
same,viability at 1.6 µM,[20],13.4%
same,Activity,[21],16.9%
same,Activity,[22],6.28 fL
same,Activity,[23],5.43%
same,inhibition in vivo at 150 mg/kg,[24],68.9%
same,Activity,[25],Active
same,Activity,[26],Active
same,Activity,[27],Active
same,Activity,[28],Non-Toxic
same,Activity,[29],Non-Toxic
same,inhibition in vivo at 75 mg/kg,[30],52.4%
same,IC50,[31],10.7 µM
same,Activity,[32],Active
same,Activity,[33],Active
same,Activity,[34],1.57 10^9/L and 2.03%
same,IC50 at 72 h,[35],> 100 µM
